Measured values as given in patent US6875781B2, “Pyridines and uses thereof” (Cell Therapeutics, Inc., priority 2003, dated 2005).

Biological target: T1, LPAAT-β (Homo sapiens, UniProt O15120)
T1 construct: the full-length human LPAAT-β cDNA was amplified by PCR from the DNA template pCE9.LPAAT-β; poly-histidine tag (N); made in house; host or cells: Sf9 insect cells (baculovirus, pFastBac HTc); membrane fraction used
T1 sequence (O15120 24-278): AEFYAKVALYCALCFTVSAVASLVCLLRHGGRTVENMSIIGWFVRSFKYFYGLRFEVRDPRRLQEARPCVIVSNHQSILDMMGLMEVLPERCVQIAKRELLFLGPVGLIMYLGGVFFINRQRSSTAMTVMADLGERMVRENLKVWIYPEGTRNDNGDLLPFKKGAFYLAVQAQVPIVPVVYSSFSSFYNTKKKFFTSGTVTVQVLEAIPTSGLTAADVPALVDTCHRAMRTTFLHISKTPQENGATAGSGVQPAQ
Assay: LPAAT-β cell-free assay
Type: biochemical
Details: Sf9 cell membrane overexpressing recombinant LPAAT-β
Description: For the construction of Baculovirus expression vectors, the full-length human LPAAT-β cDNA was amplified by PCR from the DNA template pCE9.LPAAT-β (West et at., DNA Cell Biol. 16:691-701 (1997)) using the primers 5′-[…] ATGGAGCTGTGGCCGTCTC-3′ (olpb1F; SEQ ID NO:1) and 5′-CAGGCTCTAG ACTACTGGGCCGGCTGCAC-3′ (olpb1R; SEQ ID NO:2). The ˜870 bp fragment generated was reamplified by PCR using the primers 5′[…] TCCGAAGAAGATC-3′ (olpb2F; SEQ ID NO:3) and 5′-CAGGCTCTAGCTACTGGGC CGGCTGCAC-3′ (olpb1R; SEQ ID NO:2). The ˜890 bp fragment generated as then cleaved with Sal I and Xba I for insertion into pFastBac™ HTc vector (Life Technologies, Gaithersberg, Md.) between the Sal I and Xba I sites for the generation of the plasmid pFB.LPAAT-β. This plasmid was then transformed into E. coli DH10Bac™ (Life Technologies, Gaithersberg, Md.) for the generation of recombinant Bacmid DNA for transfection in HighFive (Invitrogen, San Diego, Calif.) or SF9 insect cells for the production of recombinant Baculovirus stocks using the protocol described in the Bac-to-Bac® Baculovirus Expression System (Life Technologies, Gaithersberg, Md.), a eukaryotic expression system for generating recombinant baculovirus through site-specific transposition in E. coli. Viral stocks harvested from the transfected cells can then be used to infect fresh insect cells for the subsequence expression of LPAAT-β fusion protein with a poly-histidine tag and a myc-epitope near its N-terminus. The membrane fraction from these Sf9 cells would be the source of LPAAT enzyme.
For the preparation of membranes from Sf9 Cells, all steps are performed on ice or at 4° C. Sf9 cell pellets (˜10^8 cells) were thawed and resuspended in 1-2 ml of buffer A (20 mM Hepes, pH 7.5, 1 mM DTT, 1 mM EDTA, 20% w/v glycerol, 1 mM Benzamidine, 1 μg/ml soybean trypsin inhibitor (SBTI), 1 μg/ml pepstatin A) w/o DTT but with 1 mM Pefabloc. The cells were lysed by sonication using a Branson Sonifier at output=2, duty cycle=2, 10 pulses each at 10 s. with the tip of small sonicator probe submerged but not touching the walls. DTT was then added to 1 mM from a 1 M stock. The samples were centrifuged at 1500 rpm for 5 min. The low speed supernatant was saved and centrifuged (TLA 100.3 rotor, polycarbonate tubes, 2 ml/tube or 1.5 ml/tube minimum) at 100000×g for 1 hr. The high speed pellet was resuspend in Buffer A with a probe sonicator (10 pulses @ output #2 and duty cycle 20%) as a source of LPAAT enzyme.
LPAAT-β catalyzes the transfer of an acyl group from a donor such as acyl-CoA to LPA. The transfer of the acyl group from acyl-CoA to LPA leads to the release of free CoA, which can be reacted with the thiol reagent, 5,5′-dithiobis(2-nitrobenzoic acid) (DTNB). The reaction between DTNB and the free sulfhydryl group from CoA generates a yellow-colored product, 3-carboxylato-4-nitrothiophenolate (CNP), that absorbs at 413 nm. LPAAT-β derived from Sf9 cell membrane overexpressing LPAAT-β were resuspended in HEPES saline buffer (20 mM HEPES pH 7.5, 150 mM NaCl), 1 mg/ml BSA and 72 μl aliquots were distributed into 96-well microtiter plates. 8 μl of compound of interest at 200 μM dissolved in 100% DMSO was added into each well. 20 μl of 1 mM 18:1-CoA and 1 mM sn-1-18:1 lysoPA was then added to each well to initiate the reaction and allowed to run at room temperature for 25 min. 100 μl of 1 mM DTNB in 100% ethanol was then added to each well to quench the reaction and for color development. The absorbance at 405 nm, measured using a spectrophotometer plate reader, is proportional to the activity of LPAAT-β in the sample. This colorimetric assay was used for the high throughput screening of LPAAT inhibitors.
The radiometric assay was carried out in Sf9 cell membrane overexpressing LPAAT-β resuspended in HEPES-saline buffer, pH 7.5, 1 mg/ml BSA, 1 mM EDTA and 200 μM [^14C]18:1-CoA and 200 μM sn-1-18:1 lysoPA. […]

Row | Structure (SMILES) | IC50
1 | COc1ccc(Cl)cc1-c1cc(N)nc(Nc2ccc(C)cc2)c1 [Example 9] | 240 nM
2 | COc1ccc(Cl)cc1-c1cc(Nc2ccc(Cl)cc2)cc(N)n1 [Example 7, 6-(5-Chloro-2-methoxy-phenyl)-N*4*-(4-chloro-phenyl)-pyridine-2,4-diamine] | 18000 nM
3 | COc1ccc(Cl)cc1-c1cc(Cl)cc(Nc2ccc(C)cc2)n1 [Example 2, [4-Cloro-6-(5-chloro-2-methoxy-phenyl)-pyridin-2-yl]-p-tolyl-amine] | > 40000 nM
4 | COc1ccc(Cl)cc1-c1cc(N)nc(Nc2ccc(C=O)cc2)c1 [Example 14, 4-[6-Amino-4-(5-chloro-2-methoxy-phenyl)-pyridin-2-ylamino]-benzaldehyde] | 260 nM
5 | COc1ccc(Cl)cc1-c1cc(Nc2ccc(C)cc2)cc(NC(C)=O)n1 [Example 5, N-[6-(5-chloro-2-methoxy-phenyl)-4-p-tolylamino-pyridin-2-yl]-acetamide] | 34000 nM
6 | CCOc1ccc(Cl)cc1-c1cc(N)nc(Nc2ccc(CO)cc2)c1 [Example 13, {4-[6-Amino-4-(5-chloro-2-ethoxy-phenyl)-pyridin-2-ylamino]-phenyl}-methanol] | 100 nM
7 | COc1ccc(Cl)cc1-c1cc(N)cc(Nc2ccc(Cl)cc2)n1 [Example 4, 6-(5-Chloro-2-methoxy-phenyl)-N*2*-(4-chloro-phenyl)-pyridine-2,4-diamine] | 6500 nM
8 | CCOc1ccc(Cl)cc1-c1cc(N)nc(Nc2ccc(Cl)cc2)c1 [Example 11, 4-(5-Chloro-2-ethoxy-phenyl)-N-(4-chloro-phenyl)-pyridine-2,6-diamine] | 50 nM
9 | COc1ccc(Cl)cc1-c1cc(N)cc(Nc2ccc(C)cc2)n1 [Example 3, 6-(5-Chloro-2-methoxy-phenyl)-N*2*-p-tolyl-pyridine-2,4-diamine] | 29000 nM
10 | COc1ccc(Cl)cc1-c1cc(N)nc(Nc2ccc(Cl)cc2)c1 [Example 8, 4-(5-Chloro-2-methoxy-phenyl)-N-(4-chloro-phenyl)-pyridine-2,6-diamine] | 40 nM
11 | COc1ccc(Cl)cc1-c1cc(Nc2ccc(C)cc2)cc(N)n1 [Example 6, 6-(5-Chloro-2-methoxy-phenyl)-N*4*-p-tolyl-pyridine-2,4-diamine] | 35000 nM
12 | COc1ccc(Cl)cc1-c1cc(Nc2ccc(C)cc2)cc(Cl)n1 [Example 1, [2-Chloro-6-(5-chloro-2-methoxy-phenyl)-pyridin-4-yl]-p-tolyl-amine] | 200 nM
13 | CCOc1ccc(Cl)cc1-c1cc(N)nc(Nc2ccc(C=O)cc2)c1 [Example 12, 4-[6-Amino-4-(5-chloro-2-ethoxy-phenyl)-pyridin-2-ylamino]-benzaldehyde] | 50 nM
14 | CCOc1ccc(Cl)cc1-c1cc(N)nc(Nc2ccc(C)cc2)c1 [Example 10] | 490 nM
